Experimental data from patent US20200368247A1, “CENICRIVIROC FOR THE TREATMENT OF FIBROSIS” (Tobira Therapeutics, Inc., priority 2014, published 2020).
Like-named read-outs stand apart in the source and are kept apart here.

How the values were obtained:
[1] = test system: HIV-1; assay: Study 202 Phase 2b, virologic response (HIV-1 RNA <50 copies/mL, FDA Snapshot), with FTC/TDF
Description: (§1) Subjects with a history of HIV-2, hepatitis B and/or C, cirrhosis of the liver or any known active or chronic active liver disease were excluded from the study.
The primary efficacy endpoint was virologic response at Week 24, defined as HIV-1 RNA <50 copies/mL using the FDA Snapshot Algorithm.

[2] = Study 202 biomarkers of inflammation; format: in vivo, human
Procedure: As an exploratory analysis, levels of inflammation biomarkers MCP-1, sCD14, high sensitivity C-reactive protein [hs-CRP], interleukin-6 [IL-6], D-dimer, and fibrinogen) were measured. Baseline values and changes from baseline at Week 24 and Week 48 of MCP-1, sCD14, hs-CRP, IL-6, D-dimer, and fibrinogen are summarized in Table 25.
The sCD14 samples were originally analyzed in 2 separate batches: Batch 1 included samples leading up to the Week 24 primary analysis and Batch 2 included Week 32 and Week 48 (end of study) samples. A repeat analysis of archived samples all analyzed in one batch was conducted for consistency in analysis across time points. To control for the effects of covariates, a linear mixed-model repeated-measures analysis was conducted on the changes from baseline in sCD14 (analysis dated September 2013).

[3] = for SAE: Suicidal ideation: through Week 48
Description: as §1
Most AEs were mild or moderate (Grade 1 or Grade 2). […] None of the Grade ≥3 AEs (preferred terms) were reported in more than 1 subject. Table 28 provides an overview of deaths, SAES, AEs, AEs by severity, AEs related to study medication, and AE leading to discontinuation.

[4] = All CVC (N = 115), EFV (N = 28)

CCCCOCCOc1ccc(-c2ccc3c(c2)/C=C(/C(=O)Nc2ccc([S@@+]([O-])Cc4cncn4CCC)cc2)CCCN3CC(C)C)cc1 [CVC, (S)-8-[4-(2-Butoxyethoxy)phenyl]-1-isobutyl-N-(4-{[(1-propyl-1H-imidazol-5-yl)methyl]sulfinyl}phenyl)-1,2,3,4-tetrahydro-1-benzazocine-5-carboxamide]
subjects who prematurely discontinued the study ([1]; CVC 100 mg arm): 29% | subjects with virologic success (HIV-1 RNA <50 copies/mL) ([1]; CVC 100 mg, Week 24): 76% | subjects with virologic success (HIV-1 RNA <50 copies/mL) ([1]; CVC 100 mg, Week 48): 68% | subjects who prematurely discontinued the study ([1]; CVC 200 mg arm): 27% | subjects with virologic success (HIV-1 RNA <50 copies/mL) ([1]; CVC 200 mg, Week 24): 73% | subjects with virologic success (HIV-1 RNA <50 copies/mL) ([1]; CVC 200 mg, Week 48): 64% | sCD14 Baseline value, Mean ([2]; CVC 100 mg): 1.8e+06 pg/mL | sCD14 change from baseline at Week 12, Mean ([2]; CVC 100 mg): -140000 pg/mL | sCD14 change from baseline at Week 12, Median ([2]; CVC 100 mg): -160000 pg/mL | sCD14 change from baseline at Week 24, Mean ([2]; CVC 100 mg): -190000 pg/mL | sCD14 change from baseline at Week 24, Median ([2]; CVC 100 mg): -180000 pg/mL | sCD14 change from baseline at Week 32, Mean ([2]; CVC 100 mg): 110000 pg/mL | sCD14 change from baseline at Week 32, Median ([2]; CVC 100 mg): 120000 pg/mL | sCD14 change from baseline at Week 48, Mean ([2]; CVC 100 mg): 100000 pg/mL | sCD14 change from baseline at Week 48, Median ([2]; CVC 100 mg): 100000 pg/mL | sCD14 change from baseline at Week 12, Mean ([2]; CVC 200 mg): -230000 pg/mL | sCD14 change from baseline at Week 12, Median ([2]; CVC 200 mg): -210000 pg/mL | sCD14 change from baseline at Week 24, Mean ([2]; CVC 200 mg): -230000 pg/mL | sCD14 change from baseline at Week 24, Median ([2]; CVC 200 mg): -190000 pg/mL | sCD14 change from baseline at Week 32, Mean ([2]; CVC 200 mg): -20000 pg/mL | sCD14 change from baseline at Week 32, Median ([2]; CVC 200 mg): -20000 pg/mL | sCD14 change from baseline at Week 48, Mean ([2]; CVC 200 mg): -40000 pg/mL | sCD14 change from baseline at Week 48, Median ([2]; CVC 200 mg): -40000 pg/mL | plasma MCP-1 over time ([2]; Study 202, up to Week 48): increases over time | Deaths [3, 4]: 0 n | SAE: Suicidal ideation [3, 4]: 0 n | Grade 3 or 4 AE: Suicidal ideation ([3]; All CVC (N = 115), EFV (N = 28; Grade 4 event)): 0 n | Deaths ([3]; CVC 100 mg (N = 58)): 0 n | Grade 3 or 4 AE: Suicidal ideation ([3]; CVC 100 mg (N = 58)): 0 n | SAE: Suicidal ideation ([3]; CVC 100 mg (N = 58)): 0 n | Deaths ([3]; CVC 200 mg (N = 57)): 0 n | Grade 3 or 4 AE: Suicidal ideation ([3]; CVC 200 mg (N = 57)): 0 n | SAE: Suicidal ideation ([3]; CVC 200 mg (N = 57)): 0 n | AE leading to discontinuation: Abnormal dreams ([3]; human, in vivo, 48 week): 0 n | AE leading to discontinuation: Aggression ([3]; human, in vivo, 48 week): 1 n | AE leading to discontinuation: Anxiety ([3]; human, in vivo, 48 week): 0 n | AE leading to discontinuation: Depression ([3]; human, in vivo, 48 week): 1 n | AE leading to discontinuation: Dermatitis allergic ([3]; human, in vivo, 48 week): 0 n | AE leading to discontinuation: Ear and labyrinth disorders ([3]; human, in vivo, 48 week): 0 n | AE leading to discontinuation: Insomnia ([3]; human, in vivo, 48 week): 0 n | AE leading to discontinuation: Psychiatric disorders ([3]; human, in vivo, 48 week): 1 n | AE leading to discontinuation: Rash ([3]; human, in vivo, 48 week): 0 n | AE leading to discontinuation: Skin and subcutaneous tissue disorders ([3]; human, in vivo, 48 week): 0 n | AE leading to discontinuation: Tachyphrenia ([3]; human, in vivo, 48 week): 0 n | AE leading to discontinuation: Thinking abnormal ([3]; human, in vivo, 48 week): 1 n | AE leading to discontinuation: Tinnitus ([3]; human, in vivo, 48 week): 0 n | Any AE, % ([3]; human, in vivo, 48 week): (86%) | Depression, % ([3]; human, in vivo, 48 week): (3%) | Diarrhoea, % ([3]; human, in vivo, 48 week): (15%) | Fatigue, % ([3]; human, in vivo, 48 week): (12%) | Headache, % ([3]; human, in vivo, 48 week): (14%) | Nausea, % ([3]; human, in vivo, 48 week): (16%) | Rash, % ([3]; human, in vivo, 48 week): (12%) | Subjects with AEs leading to discontinuation of study medication ([3]; human, in vivo, 48 week): 1 n | Subjects with AEs related to study medication ([3]; human, in vivo, 48 week): 54 n | Subjects with AEs, by worst grade severity: Grade 1 ([3]; human, in vivo, 48 week): 50 n | Subjects with AEs, by worst grade severity: Grade 2 ([3]; human, in vivo, 48 week): 44 n | Subjects with AEs, by worst grade severity: Grade 3 ([3]; human, in vivo, 48 week): 5 n | Subjects with AEs, by worst grade severity: Grade 4 ([3]; human, in vivo, 48 week): 0 n | Syphilis, % ([3]; human, in vivo, 48 week): (1%) | Upper respiratory tract infection, % ([3]; human, in vivo, 48 week): (16%) | AE leading to discontinuation: Disturbance in attention ([3]; human, in vivo, 48 weeks): 0 n | AE leading to discontinuation: Dizziness ([3]; human, in vivo, 48 weeks): 0 n | AE leading to discontinuation: Eye disorders ([3]; human, in vivo, 48 weeks): 0 n | AE leading to discontinuation: Gastrointestinal disorders ([3]; human, in vivo, 48 weeks): 0 n | AE leading to discontinuation: General disorders and administration site conditions ([3]; human, in vivo, 48 weeks): 1 n | AE leading to discontinuation: Hypoaesthesia ([3]; human, in vivo, 48 weeks): 0 n | AE leading to discontinuation: Malaise ([3]; human, in vivo, 48 weeks): 1 n | AE leading to discontinuation: Musculoskeletal and connective tissue disorders ([3]; human, in vivo, 48 weeks): 0 n | AE leading to discontinuation: Musculoskeletal discomfort ([3]; human, in vivo, 48 weeks): 0 n | AE leading to discontinuation: Nausea ([3]; human, in vivo, 48 weeks): 0 n | AE leading to discontinuation: Nervous system disorders ([3]; human, in vivo, 48 weeks): 0 n | AE leading to discontinuation: Photophobia ([3]; human, in vivo, 48 weeks): 0 n | Abnormal dreams, % ([3]; human, in vivo, 48 weeks): (8%) | Any AE leading to discontinuation of study drug ([3]; human, in vivo, 48 weeks): 1 n | Any Grade 3 AE ([3]; human, in vivo, 48 weeks): 5 n | Any Grade 4 AE ([3]; human, in vivo, 48 weeks): 0 n | Any SAE ([3]; human, in vivo, 48 weeks): 2 n | Dizziness, % ([3]; human, in vivo, 48 weeks): (10%) | Grade 3 or 4 AE: Abdominal pain ([3]; human, in vivo, 48 weeks): 1 n | Grade 3 or 4 AE: Blindness unilateral ([3]; human, in vivo, 48 weeks): 1 n | Grade 3 or 4 AE: Blood creatine phosphokinase increased ([3]; human, in vivo, 48 weeks): 1 n | Grade 3 or 4 AE: Cardiac disorders ([3]; human, in vivo, 48 weeks): 1 n | Grade 3 or 4 AE: Corneal infection ([3]; human, in vivo, 48 weeks): 1 n | Grade 3 or 4 AE: Depression ([3]; human, in vivo, 48 weeks): 0 n | Grade 3 or 4 AE: Dermatitis allergic ([3]; human, in vivo, 48 weeks): 0 n | Grade 3 or 4 AE: Ear and labyrinth disorders ([3]; human, in vivo, 48 weeks): 0 n | Grade 3 or 4 AE: Eye disorders ([3]; human, in vivo, 48 weeks): 1 n | Grade 3 or 4 AE: Gastrointestinal disorders ([3]; human, in vivo, 48 weeks): 1 n | Grade 3 or 4 AE: General disorders and administration site conditions ([3]; human, in vivo, 48 weeks): 1 n | Grade 3 or 4 AE: Infections and infestations ([3]; human, in vivo, 48 weeks): 1 n | Grade 3 or 4 AE: Investigations ([3]; human, in vivo, 48 weeks): 1 n | Grade 3 or 4 AE: Palpitations ([3]; human, in vivo, 48 weeks): 1 n | Grade 3 or 4 AE: Psychiatric disorders ([3]; human, in vivo, 48 weeks): 1 n | Grade 3 or 4 AE: Pyrexia ([3]; human, in vivo, 48 weeks): 1 n | Grade 3 or 4 AE: Skin and subcutaneous tissue disorders ([3]; human, in vivo, 48 weeks): 0 n | Grade 3 or 4 AE: Stress ([3]; human, in vivo, 48 weeks): 1 n | Grade 3 or 4 AE: Tinnitus ([3]; human, in vivo, 48 weeks): 0 n | Grade 3 or 4 AE: Weight decreased ([3]; human, in vivo, 48 weeks): 0 n | Insomnia, % ([3]; human, in vivo, 48 weeks): (6) | Lymphadenopathy, % ([3]; human, in vivo, 48 weeks): (6%) | Nasopharyngitis, % ([3]; human, in vivo, 48 weeks): (9%) | SAE: Blindness unilateral ([3]; human, in vivo, 48 weeks): 1 n | SAE: Corneal infection ([3]; human, in vivo, 48 weeks): 1 n | SAE: Depression ([3]; human, in vivo, 48 weeks): 0 n | SAE: Eye disorders ([3]; human, in vivo, 48 weeks): 1 n | SAE: Gastroenteritis ([3]; human, in vivo, 48 weeks): 1 n | SAE: Infections and infestations ([3]; human, in vivo, 48 weeks): 2 n | SAE: Psychiatric disorders ([3]; human, in vivo, 48 weeks): 0 n | Subjects with serious AEs ([3]; human, in vivo, 48 weeks): 2 n | Subjects with ≥1 AE ([3]; human, in vivo, 48 weeks): 99 n
